Consider 27 molecules from the OPERA property sets (Mansouri et al. 2018).

Broadly, the solubility is the dissolved amount per volume that the medium holds. For orientation: logP means the decadic logarithm of the partition coefficient of the neutral form, usually between octanol and water.

The conditions of the data set: for solubility: 25 °C.

In brackets after ≈: the same amount, converted by molar mass.

The molecule `COC(=O)C1(S(=O)(=O)c2ccccc2)CCC1` registered a solubility of 999 µM (≈ 254 µg/mL).

Molecule `COC(=O)C1(S(=O)(=O)c2ccc(Br)cc2)CCCCC1` yielded a solubility of 33.2 µM (≈ 12 µg/mL).

`COC(=O)CS(=O)(=O)c1ccc(Cl)cc1` returned a logP of 1.31.

Consider `CC(C)OC(=O)CS(=O)(=O)c1ccc(Cl)cc1`, for which the logP came out at 2.04.

Molecule `CC(C)OC(=O)C1(S(=O)(=O)c2ccc(Cl)cc2)CC1` yielded a solubility of 288 µM (≈ 87.3 µg/mL).

`COC(=O)C1(S(=O)(=O)c2ccc(C)cc2)CCCCC1` yielded a logP of 2.54.

Consider `COC(=O)CS(=O)(=O)c1ccccc1`, for which the logP is 0.93.

On to `CC(C)OC(=O)C1(S(=O)(=O)c2ccc([N+](=O)[O-])cc2)CC1`, for which the solubility was found to be 54.9 µM (≈ 17.2 µg/mL).

As for `Cc1ccc(S(=O)(=O)C2(C(=O)OC(C)C)CC2)cc1`, the solubility stood at 588 µM (≈ 166 µg/mL).

With `COC(=O)C1(S(=O)(=O)c2ccc(Cl)cc2)CC1`, the solubility came to 491 µM (≈ 135 µg/mL).

Molecule `COC(=O)C1(S(=O)(=O)c2ccc([N+](=O)[O-])cc2)CC1` registered a solubility of 417 µM (≈ 119 µg/mL).

As to `COC(=O)C1(S(=O)(=O)c2ccc(Cl)cc2)CCC1`, the solubility is 1000 µM (≈ 289 µg/mL).

`COC(=O)C1(S(=O)(=O)c2ccc(Br)cc2)CCCC1` gave a solubility of 97.6 µM (≈ 33.9 µg/mL).

As for `Cc1ccc(S(=O)(=O)C2(C(=O)OC(C)C)CCCC2)cc1`, the logP is 2.88.

`CCOC(=O)C1(S(=O)(=O)c2ccc(C)cc2)CCC1` displayed a solubility of 1100 µM (≈ 310 µg/mL).

Molecule `COC(=O)CS(=O)(=O)c1ccc(Br)cc1` registered a log partition coefficient (logP) of 1.52.

As for `COC(=O)C1(S(=O)(=O)c2ccccc2)CC1`, the solubility was found to be 5490 µM (≈ 1320 µg/mL).

In the case of `COC(=O)C1(S(=O)(=O)c2ccc(Br)cc2)CC1`, the solubility was found to be 214 µM (≈ 68.2 µg/mL).

As for `CC(C)OC(=O)C1(S(=O)(=O)c2ccc([N+](=O)[O-])cc2)CCCCCC1`, the solubility came to 8.5 µM (≈ 3.14 µg/mL).

In the case of `CC(C)OC(=O)C1(S(=O)(=O)c2ccc([N+](=O)[O-])cc2)CCC1`, the solubility stood at 174 µM (≈ 56.9 µg/mL).

`CC(C)OC(=O)C1(S(=O)(=O)c2ccc(Cl)cc2)CCCC1` yielded a solubility of 22.4 µM (≈ 7.41 µg/mL).

On to `CC(C)(C)OC(=O)C1(S(=O)(=O)c2ccc(Cl)cc2)CC1`, for which the solubility came out at 75.8 µM (≈ 24 µg/mL).

Molecule `CCOC(=O)C1(S(=O)(=O)c2ccc(C)cc2)CC1` had a solubility of 976 µM (≈ 262 µg/mL).

Molecule `COC(=O)C1(S(=O)(=O)c2ccccc2)CCCC1` came in with a solubility of 2820 µM (≈ 756 µg/mL).

`COC(=O)C1(S(=O)(=O)c2ccc(Br)cc2)CCC1` came in with a solubility of 282 µM (≈ 93.9 µg/mL).

The molecule `COC(=O)C1(S(=O)(=O)c2ccccc2)CCCCC1` registered a solubility of 1410 µM (≈ 399 µg/mL).

In turn, `COC(=O)C1(S(=O)(=O)c2ccc(C)cc2)CC1` came in with a solubility of 1320 µM (≈ 335 µg/mL).
